For two compounds, IC50 results are on record in patent publication US20080009523A1, “New Pyridine Analogues IV” (ASTRAZENECA AB, priority 2006, published 2008).

The experiment deals with T1, P2Y12 receptor (Homo sapiens, UniProt Q9H244).
T1 construct: expressed in transfected cells; host or cells: CHO cells (membrane preparation)
Nature of the experiment: Functional inhibition of 2-Me-S-ADP induced P2Y12 signalling (35S-GTPγS, membranes from P2Y12 transfected CHO-cells). Type of experiment: biochemical. The conditions noted are these: EC80 concentration of agonist 2-methyl-thio-adenosine diphosphate, 30° C., 45 min. The method, then:
Functional inhibition of the P2Y12 receptor can be measured by in vitro assays using cell membranes from P2Y12 transfected CHO-cells, the methodology is indicated below.
Functional inhibition of 2-Me-S-ADP induced P2Y12 signalling: 5 μg of membranes were diluted in 200 μl of 200 mM NaCl, 1 mM MgCl2, 50 mM HEPES (pH 7.4), 0.01% BSA, 30 μg/ml saponin and 10 μM GDP. To this was added an EC80 concentration of agonist (2-methyl-thio-adenosine diphosphate), the required concentration of test compound and 0.1 μCi ^35S-GTPγS. The reaction was allowed to proceed at 30° C. for 45 min. Samples were then transferred on to GF/B filters using a cell harvester and washed with wash buffer (50 mM Tris (pH 7.4), 5 mM MgCl2, 50 mM NaCl). Filters were then covered with scintilant and counted for the amount of ^35S-GTPγS retained by the filter. Maximum activity was that determined in the presence of the agonist and minimum activity in the absence of the agonist following subtraction of the value determined for non-specific activity. The effect of compounds at various concentrations was plotted according to the equation […]
y=A+((B−A)/(1+((C/x)̂D)))
A is the bottom plateau of the curve i.e. the final minimum y value
B is the top of the plateau of the curve i.e. the final maximum y value
C is the x value at the middle of the curve. This represents the log EC50 value when A+B=100 […]
For orientation: GTPγS resists hydrolysis and so accumulates on activated G proteins.

T1 sequence (Q9H244 whole entry): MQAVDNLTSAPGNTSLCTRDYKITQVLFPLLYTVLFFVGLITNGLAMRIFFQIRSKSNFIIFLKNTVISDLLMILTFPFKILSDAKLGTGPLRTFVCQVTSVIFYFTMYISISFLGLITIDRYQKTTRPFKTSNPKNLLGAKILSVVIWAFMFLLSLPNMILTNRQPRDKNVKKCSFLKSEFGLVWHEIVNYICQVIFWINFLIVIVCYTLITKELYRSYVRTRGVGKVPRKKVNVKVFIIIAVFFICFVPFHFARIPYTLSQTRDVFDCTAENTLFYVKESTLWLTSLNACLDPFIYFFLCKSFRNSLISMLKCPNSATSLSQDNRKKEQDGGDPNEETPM

The IC50 is the midpoint of a concentration-inhibition curve. The compound `CCOC(=O)c1cc(C#N)c(N2CCC(S(=O)(=O)NS(=O)(=O)Cc3ccccc3)CC2)nc1C` [Example 2, ethyl 6-(4-{[(benzylsulfonyl)amino]sulfonyl}piperidin-1-yl)-5-cyano-2-methylnicotinate] showed an IC50 of 640 nM. Under `CCOC(=O)c1cc(C#N)c(N2CCC(S(=O)(=O)NC(=O)Cc3ccc(F)cc3)CC2)nc1C` [Example 4, Ethyl 5-cyano-6-[4-({[(4-fluorophenyl)acetyl]amino}sulfonyl)piperidin-1-yl]-2-methylnicotinate] stands 300 nM.
